Test results reported in patent US10209240B2, “Predicting human developmental toxicity of pharmaceuticals using human stem-like cells and metabolomic ratios” (STEMINA BIOMARKER DISCOVERY, INC., priority 2012, dated 2019).
Like-named read-outs stand apart in the source and are kept apart here.

How the values were obtained:
[1] = tested on: WA09 hES cells; test: Phase 2 targeted biomarker assay, ornithine/cystine ratio, 9-point dose response
Excerpt: Undifferentiated hES Cell Line Maintenance (Phases 1 and 2). WA09 hES cells were obtained from the WiCell Research Institute (Madison, Wis.) and were maintained in feeder free conditions using mTeSR1 media (StemCell Technologies, Inc., Vancouver, BC, Canada) on hESC-qualified Matrigel (BD Biosciences, San Jose, Calif.) coated 6-well plates. To maintain the undifferentiated stem cell population, differentiated colonies were removed daily through aspiration and media was replaced. Additionally, the hES cells were only used in experiments up to passage 40 and were karyotyped approximately every 10 passages to minimize and monitor the potential for genetic instability. hES cells were passaged at 90-95% confluency (approximately every 7 days) using Versene (Life Technologies, Grand Island, N.Y.). Cell cultures were maintained at 37° C. under 5% CO2.
96-well hES Cell Plating (Phases 1 and 2). All experimental treatments were carried out in 96-well plates. To minimize plating variability and increase reproducibility, hES cells were plated as a single cell suspension and maintained in an undifferentiated state during compound exposure. Prior to plating in the 96-well plates, hES cells were removed from a 6-well plate using TrypLE (Life Technologies). The cells were washed with DMEM/F12 (Life Technologies) and resuspended in mTeSR1 containing 10 μM Y27632 Rho-associated kinase (ROCK) inhibitor (Merck KGaA/Calbiochem, Darmstadt, Germany). The ROCK inhibitor is added to the plating media to increase plating efficiency by decreasing dissociation-induced apoptosis. The inner 60 wells of hESC-qualified Matrigel coated 96-well plates were seeded at a density of 100,000 cells per well. The outer wells of the plate contained an equal volume media to minimize differences in humidity across the plate. Compound exposure began 24 hours after plating.
(§1) Phase 2 hES Cell Compound Exposure. […] The standard compound exposure levels used for most compounds were nine, 3-fold dilutions ranging from 0.04 μM-300 μM (FIG. 1B). […] The stock solution was diluted 1:1000 in mTeSR1 media and subsequent dilutions were performed in mTeSR1 containing 0.1% DMSO such that the final concentration of DMSO was 0.1% in all treatments. hES cells were treated for 72 hours and spent media from the last 24-hour treatment period was collected and added to acetonitrile containing ^13C6 labeled arginine (Cambridge Isotope Laboratories, Andover, Md.) as described under Phase 1. Spent media samples were stored at −80° C. until prepared for LC-HRMS analysis. Cell viability was assessed using the CellTiter-Fluor Cell Viability Assay. A quality control step was included with criteria that the CV of the measured viability RFU of the DMSO control cells could not exceed 10% for a plate to undergo LC-HRMS analysis. A dose response curve was fit to the reference treatment (0.1% DMSO treated control cells) normalized data (Viability RFUTrt X/Viability RFUDMSO) using a four-parameter log-logistic model with the R package “drc” (Ritz and Streibig, 2005, J Statistical Software; 12:1-22).
Sample Preparation (Phases 1 and 2). High molecular weight constituents (>10 KDa) of the spent media samples were removed using a Millipore Multiscreen Ultracel-10 filter plate (EMD Millipore, Billerica, Mass.). Prior to sample filtration, the filter plate was washed with 0.1% NaOH to remove a known contaminant polymer. The plate was then rinsed twice with HPLC-grade water to remove residual polymers and NaOH. Spent media samples were added to the washed filter plate. In Phase 1, samples were spiked with ^13C6 labeled arginine. Samples were centrifuged at 2,000×g at 4° C. for 200 minutes. The filtrate was collected and concentrated overnight in a Savant High Capacity Speedvac Plus Concentrator.

[2] = tested on: WA09 hES cells
Procedure: Phase I hES Cell Compound Exposure. hES cells were treated with a test compound at a single concentration equivalent to the compound's published therapeutic Cmax. […] This was done to ensure that enough cells were present at the time of sample collection to provide a signal for LC-HRMS analysis. For test compound exposure, all compound stock solutions, with the exception of valproic acid, were made with DMSO (Sigma-Aldrich). […] Each 96-well plate included media controls with and without test compound, 0.1% DMSO solvent control cells and cells exposed to a single concentration of eight different test compounds (FIG. 1A). Media controls were included on each plate to assess the impact of test compound on the sample matrix. hES cells were exposed to the test compound for 72 hours, with media and test compound replacement every 24 hours. Cells were monitored throughout the treatment period to ensure that no differentiation was occurring. After 72 hours of treatment, the spent media from the final 24-hour treatment period was collected and added to acetonitrile (Sigma-Aldrich, final acetonitrile concentration 40%), to halt metabolic processes and precipitate proteins from solution. Individual wells from each 96-well plate were collected and analyzed as separate samples. These samples were then stored at −80° C. until prepared for LC-HRMS analysis. Cell viability was assessed using the CellTiter-Fluor Cell Viability Assay as per the manufacturer's instructions (Promega, Madison, Wis.). Quality control parameters were set such that if the coefficient of variation (CV) for the viability relative fluorescent units (RFU) of the 6 cellular samples in a treatment exceeded 10% and no outliers were identified using the Grubb's test (see the worldwide web at graphpad.com/quickcalcs/Grubbs1.cfm), analysis was halted for that compound and the cell culture experiment was repeated. If outliers were present, the outlier sample was removed from analysis. If the CV for the DMSO control cell samples on a plate were outside of the quality control parameters, the entire plate was repeated. hES cell exposure to each of the 23 compounds was replicated a total of nine times.
as §1
Phase 2 Prediction of Developmental Toxicity Potential. […] FIG. 2 illustrates how the assay is applied in this situation. A test compound is considered to be teratogenic at the exposure level where the o/c ratio exceeds the teratogenicity threshold (red box, FIG. 2).

[3] = tested on: hES cells; test: devTOX computational model predictions (Version 2.0, Version 2.1) from hES cell metabolomics; assay type: cell-based, human; conditions: single dose per treatment (Dose column)
Excerpt: The selection process weighted the predictive capacity of a feature, overall intensity, and peak shape to identify very well behaved features/metabolites that could be measured by targeted LC-MS or even by other detection systems.
(§2) This simplified model is based on a ratio of the reference treatment (DMSO) normalized values of ADMA and cystine.

[4] = tested on: hES cells; test: ADMA/cystine ratio simplified predictive model in hES cell spent media; assay type: cell-based, human; conditions: single dose per treatment; ratios less than 0.9 indicate teratogenicity
Excerpt: as §2
The X-axis is the reference normalized ratio of ADMA/Cystine. The y-axis is the training set of pharmaceuticals. Grey color with triangle glyphs represents teratogens and black color with circle glyphs represents non-teratogens. Each glyph point represents the media value of an independent experimental block (6 reps per block). The crosshair glyphs mark the sample medians. In FIG. 9, grey vertical line is threshold of teratogenicity, grey horizontal lines are the median absolute deviations, and black vertical line designates 1.0. The arrows at the bottom indicate the values used for differentiation of teratogens and nonteratogens, utilizing a cut off of 0.9 (grey line).

[5] = therapeutic peak plasma in vivo concentration, human, cited from earlier work
[6] = tested on: Humans; conditions: cited from earlier work; for Humans (known human developmental toxicity): training and test set; for Known Effect: validation and test set treatments of Example 2
[7] = tested on: Rodent; conditions: training and test set; cited from earlier work
[8] = summarized from TERIS and Briggs et al. 2011, cited from earlier work
[9] = tested on: Rabbit; conditions: training and test set; cited from earlier work
[10] = training and test set, o/c ratio scored against therapeutic Cmax
[11] = test set, teratogenicity potential scored against therapeutic Cmax

Compound: CN(C)CCOC(C)(c1ccccc1)c1ccccn1 (centres unmarked) [Doxylamine]
- Targeted Biomarker Assay prediction [1]: NON
- Viability Prediction [2]: NON
- Teratogenicity Potential (μM) Cell Viability ([2]; human, 72 h): >300 µM
- Model Predictions Version 2.0 [3]: Non
- Model Predictions Version 2.1 [3]: Non
- Model Predictions ADMA/Cystine [4]: Non
- Cmax ([5]; training set): 0.38 µM
- Humans (known human developmental toxicity) [6]: NON

Compound: CC1(C)S[C@@H]2[C@H](NC(=O)[C@H](N)c3ccc(O)cc3)C(=O)N2[C@H]1C(=O)O [Amoxicillin]
- O/C Ratio Prediction [1]: NON
- Targeted Biomarker Assay prediction [1]: NON
- Teratogenicity Potential (μM) O/C Ratio ([1]; human, 72 h): >300 µM
- Viability Prediction [2]: NON
- Teratogenicity Potential (μM) Cell Viability ([2]; human, 72 h): >300 µM
- Model Predictions Version 2.0 [3]: Non
- Model Predictions Version 2.1 [3]: Non
- Model Predictions ADMA/Cystine [4]: Non
- Cmax ([5]; test set): 20.5 µM
- Humans (known human developmental toxicity) [6]: NON
- Known Effect [6]: Non
- Rodent prediction [7]: NON
- Preclinical in vivo and known human developmental effects ([8]; test set compounds): None

Compound: C=CC=O [Acrolein]
- Model Predictions Version 2.0 [3]: Ter
- Model Predictions Version 2.1 [3]: Ter
- Model Predictions ADMA/Cystine [4]: Ter
- Known Effect [6]: Ter

Compound: O=C1O[C@H]([C@@H](O)CO)C(O)=C1O [Ascorbic Acid]
- Targeted Biomarker Assay prediction [1]: NON
- Viability Prediction [2]: NON
- Teratogenicity Potential (μM) Cell Viability ([2]; human, 72 h): >300 µM
- Model Predictions Version 2.0 [3]: Non
- Model Predictions Version 2.1 [3]: Non
- Model Predictions ADMA/Cystine [4]: Non
- Cmax ([5]; training set): 90 µM

Compound: Cc1ncc(C[n+]2csc(CCO)c2C)c(N)n1 [Thiamine]
- O/C Ratio Prediction [1]: NON
- Targeted Biomarker Assay prediction [1]: NON
- Teratogenicity Potential (μM) O/C Ratio ([1]; human, 72 h): >300 µM
- Viability Prediction [2]: NON
- Teratogenicity Potential (μM) Cell Viability ([2]; human, 72 h): >300 µM
- Model Predictions Version 2.0 [3]: Non
- Model Predictions Version 2.1 [3]: Non
- Model Predictions ADMA/Cystine [4]: Non
- Cmax ([5]; training set): 0.67 µM
- Humans (known human developmental toxicity) [6]: NON
- Known Effect [6]: Non
- Preclinical in vivo and known human developmental effects ([8]; training set compounds): None

Compound: CN(C)CCOC(c1ccccc1)c1ccccc1 [Diphenhydramine]
- Targeted Biomarker Assay prediction [1]: NON
- Viability Prediction [2]: NON
- Teratogenicity Potential (μM) Cell Viability ([2]; human, 72 h): 78.9 µM
- Model Predictions Version 2.0 [3]: Non
- Model Predictions Version 2.1 [3]: Non
- Model Predictions ADMA/Cystine [4]: Non

Compound: N[C@@H](Cc1cc(I)c(Oc2cc(I)c(O)c(I)c2)c(I)c1)C(=O)O [Levothyroxine]
- O/C Ratio Prediction [1]: NON
- Targeted Biomarker Assay prediction [1]: NON
- Teratogenicity Potential (μM) O/C Ratio ([1]; human, 72 h): 43.5 µM
- Viability Prediction [2]: NON
- Teratogenicity Potential (μM) Cell Viability ([2]; human, 72 h): >300 µM
- Model Predictions Version 2.0 [3]: Ter
- Model Predictions Version 2.1 [3]: Non
- Model Predictions ADMA/Cystine [4]: Non
- Cmax ([5]; training set): 0.14 µM
- Humans (known human developmental toxicity) [6]: NON
- Known Effect [6]: Non
- Rodent prediction [7]: NON
- Rabbit prediction [9]: NON
- Preclinical in vivo and known human developmental effects ([8]; training set compounds): None

Compound: CC(=O)CC(c1ccccc1)c1c(O)c2ccccc2oc1=O (centres unmarked) [Warfarin]
- Targeted Biomarker Assay prediction [1, 10]: TER
- Teratogenicity Potential (μM) Cell Viability ([2]; training set, interpolated concentration where cell viability dose response curve crosses teratogenicity threshold 0.88, 72 hours): >300 µM
- Viability Prediction ([2]; training set, teratogenicity potential scored against therapeutic Cmax): NON
- Model Predictions Version 2.0 [3]: Ter
- Model Predictions Version 2.1 [3]: Ter
- Model Predictions ADMA/Cystine [4]: Ter
- Cmax ([5]; training set): 23.4 µM
- Humans (known human developmental toxicity) [6]: TER

Compound: NC(=O)NO [Hydroxyurea]
- Targeted Biomarker Assay prediction [1]: TER
- Viability Prediction [2]: TER
- Cytotoxicity at the Cmax exposure level ([2]; human, 72 h): greater than 30%
- Teratogenicity Potential (μM) Cell Viability ([2]; human, 72 h): 251.6 µM
- Model Predictions Version 2.0 [3]: Ter
- Model Predictions Version 2.1 [3]: Ter
- Model Predictions ADMA/Cystine [4]: Ter
- Cmax ([5]; training set): 565 µM
- Humans (known human developmental toxicity) [6]: TER

Compound: Nc1nc(N)c2nc(CNc3ccc(C(=O)N[C@@H](CCC(=O)O)C(=O)O)cc3)cnc2n1 [Aminopterin]
- Teratogenicity Potential (μM) O/C Ratio ([1]; test set, interpolated concentration where o/c ratio dose response curve crosses teratogenicity threshold 0.88, 72 hours): 0.01 µM
- O/C Ratio Prediction [1, 11]: TER
- Targeted Biomarker Assay prediction [1, 10]: TER
- Teratogenicity Potential (μM) Cell Viability ([2]; test set, interpolated concentration where cell viability dose response curve crosses teratogenicity threshold 0.88, 72 hours): 0.01 µM
- Viability Prediction [2, 11]: TER
- Model Predictions Version 2.0 [3]: Ter
- Model Predictions Version 2.1 [3]: Ter
- Model Predictions ADMA/Cystine [4]: Ter
- Cmax ([5]; test set): 0.3 µM
- Humans (known human developmental toxicity) [6]: TER
- Known Effect [6]: Ter
- Rodent prediction [7]: TER
- Rabbit prediction [9]: TER
- Preclinical in vivo and known human developmental effects ([8]; test set compounds): Craniofacial, limb, skeletal,
